Where a name gives a salt, the structure may show the parent alone.
Columns and labels:
[1] = system: uterus of ovariectomized (OVX) rats; assay: Uterine weight in ovariectomized rats (post-menopausal model, agonist activity); format: in vivo, Sprague Dawley rats; details: daily for 4 days; for Uterine Weight (% increase vs. OVX): oral
Protocol: (§1) In the examples illustrating the methods, a post-menopausal model was used in which effects of different treatments upon circulating lipids were determined.
(§2) Seventy-five day old female Sprague Dawley rats (weight range of 200 to 225g) were obtained from Charles River Laboratories (Portage, Mich.). The animals were either bilaterally ovariectomized (OVX) or exposed to a Sham surgical procedure at Charles River Laboratories, and then shipped after one week. Upon arrival, they were housed in metal hanging cages in groups of 3 or 4 per cage and had ad libitum access to food calcium content approximately 0.5%) and water for one week. Room temperature was maintained at 22.2°±1.7° C. with a minimum relative humidity of 40%. The photoperiod in the room was 12 hours light and 12 hours dark.
(§3) Dosing Regimen Tissue Collection. After a one week acclimation period (therefore, two weeks post-OVX) daily dosing with test compound was initiated. […] Animals were dosed daily for 4 days. Following the dosing regimen, animals were weighed and anesthetized with a ketamine: Xylazine (2:1, V:V) mixture and a blood sample was collected by cardiac puncture. The animals were then sacrificed by asphyxiation with CO2, the uterus was removed through a midline incision, and a wet uterine weight was determined.

[2] = system: MCF-7 breast adenocarcinoma cells; assay: MCF-7 Proliferation Assay (tritiated thymidine); format: cell-based; details: 48 hours, tritiated thymidine incorporation; for IC50: Homo sapiens, MCF7
Protocol: MCF-7 breast adenocarcinoma cells (ATCC HTB 22) were maintained in MEM (minimal essential medium, phenol red-free, Sigma, St. Louis, Mo.) supplimented with 10% fetal bovine serum (FBS) (V/V), L-glutamine (2 mM), sodium pyruvate (1 mM), HEPES {(N-[2-hydroxyethyl]piperazine-N'-[2-ethanesulfonic acid]10 mM}, non-essential amino acids and bovine insulin (1 ug/mL) (maintenance medium). Ten days prior to assay, MCF-7 cells were switched to maintenance medium supplemented with 10% dextran coated charcoal stripped fetal bovine serum (DCC-FBS) assay medium) in place of 10% FBS to deplete internal stores of steroids. MCF-7 cells were removed from maintenance flasks using cell dissociation medium (Ca++/Mg++ free HBSS (phenol red-free) supplemented with 10 mM HEPES and 2 mM EDTA). Cells were washed twice with assay medium and adjusted to 80,000 cells/mL. Approximately 100 μL (8,000 cells) were added to flat-bottom microculture wells (Costar 3596) and incubated at 37° C. in a 5% CO2 humidified incubator for 48 hours to allow for cell adherence and equilibration after transfer. Serial dilutions of drugs or DMSO as a diluent control were prepared in assay medium and 50 μL transferred to triplicate microcultures followed by 50 μL assay medium for a final volume of 200 μL. After an additional 48 hours at 37° C. in a 5% CO2 humidified incubator, microcultures were pulsed with tritiated thymidine (1 uCi/well) for 4 hours. Cultures were terminated by freezing at -70° C. for 24 hours followed by thawing and harvesting of microcultures using a Skatron Semiautomatic Cell Harvester. Samples were counted by liquid scintillation using a Wallac BetaPlace β counter. Results in Table 2 below show the IC50 for certain compounds of the present invention.

[3] = system: Uterine Eosinophil Peroxidase (EPO); assay: Uterine Eosinophil Peroxidase (EPO) Assay in ovariectomized rats; format: in vivo, Sprague Dawley rats; parameters: key: max velocity of A450 increase over a 15 s interval; details: oral, daily for 4 days, OVX rats
Protocol: as §1, §2, §3
Uterine Eosinophil Peroxidase (EPO) Assay. Uteri were kept at 4° C. until time of enzymatic analysis. The uteri were then homogenized in 50 volumes of 50 mM Tris buffer (pH-8.0) containing 0.005% Triton X-100. Upon addition of 0.01% hydrogen peroxide and 10 mM O-phenylenediamine (final concentrations) in Tris buffer, increase in absorbance was monitored for one minute at 450 nm. The presence of eosonophils in the uterus is an indication of estrogenic activity of a compound. The maximal velocity of a 15 second interval was determined over the initial, linear portion of the reaction curve.

Serum Cholesterol = assay: Serum cholesterol analysis in ovariectomized rats; format: in vivo, Sprague Dawley rats; details: daily for 4 days; for Serum Cholesterol (% decrease vs. OVX): oral
Protocol: as §1, §2, §3
Cholesterol Analysis. Blood samples were allowed to clot at room temperature for 2 hours, and serum was obtained following centrifugation for 10 minutes at 3000 rpm. Serum cholesterol was determined using a Boehringer Mannheim Diagnostics high performance cholesterol assay. Briefly the cholesterol was oxidized to cholest-4-en-3-one and hydrogen peroxide. The hydrogen peroxide was then reacted with phenol and 4-aminophenazone in the presence of peroxidase to produce a p-quinone imine dye, which was read spectrophotemetrically at 500 nm. Cholesterol concentration was then calculated against a standard curve. The entire assay was automated using a Biomek Automated Workstation.

[4] = Rattus norvegicus, po, 96 h, 0.1 mg/kg, read-out: Uterine Weight (% increase vs. OVX)
[5] = Rattus norvegicus, po, 96 h, 1.0 mg/kg, read-out: Uterine Weight (% increase vs. OVX)
[6] = Rattus norvegicus, po, 96 h, 10.0 mg/kg, read-out: Uterine Weight (% increase vs. OVX)
[7] = Rattus norvegicus, po, 96 h, 0.1 mg/kg, OVX rats, read-out: Serum Cholesterol (% decrease vs. OVX)
[8] = Rattus norvegicus, po, 96 h, 1.0 mg/kg, OVX rats, read-out: Serum Cholesterol (% decrease vs. OVX)
[9] = Rattus norvegicus, po, 96 h, 10.0 mg/kg, OVX rats, read-out: Serum Cholesterol (% decrease vs. OVX)

IC50 [2] [nM] | IC50, MCF-7 proliferation [2] | SMILES | change in vivo at 0.1 mg/kg [1, 4] [%] | change in vivo at 1 mg/kg [1, 5] [%] | change in vivo at 10 mg/kg [1, 6] [%] | Uterine EPO (V. max) ([3]; 0.1 mg/kg) | Uterine EPO (V. max) ([3]; 1.0 mg/kg) | Uterine EPO (V. max) ([3]; 10.0 mg/kg) | inhibition in vivo at 0.1 mg/kg (Serum Cholesterol; [7]) [%] | inhibition in vivo at 1 mg/kg (Serum Cholesterol; [8]) [%] | inhibition in vivo at 10 mg/kg (Serum Cholesterol; [9]) [%] | further results
10 |  | O=C(c1ccc(OCCN2CCCCC2)cc1)c1c(-c2ccsc2)sc2cc(O)ccc12 [Example 9] | 8.8 | 1.2 | 54.3 | 0.9 | 3.3 | 2.4 | 0.6 | 29.8 | 31.9 | 
 | Not active at the concentration tested | COc1ccc(Cc2sc3cc(OC)ccc3c2C(=O)c2ccc(OCCN3CCCCC3)cc2)cc1 [Example 10, [2-(4-Methoxyphenyl)methyl-6-methoxybenzothien-3-yl][4-[2-(1-piperdinyl)ethoxy]phenyl]methanone] | -5.6 | 39.2 | 45.2 | 6.6 | 46.2 | 65.4 | 10.3 | 49 | 50 | 
5 |  | O=C(c1ccc(OCCN2CCCCC2)cc1)c1c(Cc2ccc(O)cc2)sc2cc(O)ccc12 [Example 11, [2-(4-Hydroxyphenyl)methyl-6-hydroxybenzothien-3-yl][4-[2-(1-piperdinyl)ethoxy]phenyl]methanone] | 80.5 | 44.6 | 46.9 | 16.5 | 18.9 | 40.5 | 43 | 35.3 | 68.3 | change in vivo at 0.01 mg/kg ([1]; Rattus norvegicus, po, 96 h, 0.01 mg/kg, read-out: Uterine Weight (% increase vs. OVX)): 77.9%; Uterine EPO (V. max) ([3]; 0.01 mg/kg): 33.0; inhibition in vivo at 0.01 mg/kg (Serum Cholesterol; Rattus norvegicus, po, 96 h, 0.01 mg/kg, OVX rats, read-out: Serum Cholesterol (% decrease vs. OVX)): 41%

The next lines start with the molecule.

SMILES | IC50 [2] [nM] | IC50, MCF-7 proliferation [2] | change in vivo at 0.1 mg/kg [1, 4] [%] | change in vivo at 1 mg/kg [1, 5] [%] | change in vivo at 10 mg/kg [1, 6] [%] | Uterine EPO (V. max) ([3]; 0.1 mg/kg) | Uterine EPO (V. max) ([3]; 1.0 mg/kg) | Uterine EPO (V. max) ([3]; 10.0 mg/kg) | inhibition in vivo at 0.1 mg/kg (Serum Cholesterol; [7]) [%] | inhibition in vivo at 1 mg/kg (Serum Cholesterol; [8]) [%] | inhibition in vivo at 10 mg/kg (Serum Cholesterol; [9]) [%] | further results
O=C(c1ccc(OCCN2CCCCC2)cc1)c1c(-c2cccc3ccccc23)sc2cc(O)ccc12 [Example 2, [2-(1-Naphthyl)-6-hydroxybenzothien-3-yl][4-[2-(1-piperdinyl)ethoxy]phenyl]methanone] | 0.8 |  | 28.8 | 28.1 | 21.2 | 4.5 | 4.8 | 3.6 | 56 | 60.6 | 70.6 | 
O=C(c1ccc(OCCN2CCCCC2)cc1)c1c(-c2ccc3ccccc3c2)sc2cc(O)ccc12 [Example 4, [2-(2-Naphthyl)-6-hydroxybenzothien-3-yl][4-[2-(1-piperdinyl)ethoxy]phenyl]methanone] | 80 |  | 72.7 | 46.8 | 59.5 | 12.3 | 42.9 | 35.7 | 48.1 | 54.5 | 63.6 | 
COc1ccc2c(C(=O)c3ccc(OCCN4CCCCC4)cc3)c(-c3cccs3)sc2c1 [Example 5, [2-(2-Thienyl)-6-methoxybenzothien-3-yl][4-[2-(1-piperdinyl)ethoxy]phenyl]methanone] |  | Not active at the concentration tested | 2.4 |  |  | 3.0 | 3.3 | 4.2 |  |  | 26.3 | Uterine Weight (% increase vs. OVX) ([1]; 1.0 mg/kg): 1.4%; Uterine Weight (% increase vs. OVX) ([1]; 10.0 mg/kg): 28.6%; Serum Cholesterol (% decrease vs. OVX) (Serum Cholesterol; 0.1 mg/kg): 6%; Serum Cholesterol (% decrease vs. OVX) (Serum Cholesterol; 1.0 mg/kg): -10.2%
COc1ccc2c(C(=O)c3ccc(OCCN4CCCCC4)cc3)c(-c3cccs3)sc2c1 [Example 6, [2-(2-Thienyl)-6-methoxybenzothien-3-yl][4-[2-(1-piperdinyl)ethoxy]phenyl]methanone hydrochloride] |  |  |  |  |  |  |  |  |  |  |  | Uterine Weight (% increase vs. OVX) ([1]; 0.1 mg/kg, hydrochloride): 3.4%; Uterine Weight (% increase vs. OVX) ([1]; 1.0 mg/kg, hydrochloride): 4.2%; Uterine Weight (% increase vs. OVX) ([1]; 10.0 mg/kg, hydrochloride): 9.5%; Uterine EPO (V. max) ([3]; 0.1 mg/kg, hydrochloride): 3.3; Uterine EPO (V. max) ([3]; 1.0 mg/kg, hydrochloride): 4.8; Uterine EPO (V. max) ([3]; 10.0 mg/kg, hydrochloride): 4.8; Serum Cholesterol (% decrease vs. OVX) (Serum Cholesterol; 0.1 mg/kg, hydrochloride): 23.1%; Serum Cholesterol (% decrease vs. OVX) (Serum Cholesterol; 1.0 mg/kg, hydrochloride): 35.8%; Serum Cholesterol (% decrease vs. OVX) (Serum Cholesterol; 10.0 mg/kg, hydrochloride): 29.6%
O=C(c1ccc(OCCN2CCCCC2)cc1)c1c(-c2cccs2)sc2cc(O)ccc12 [Example 7, [2-(2-Thienyl)-6-hydroxybenzothien-3-yl][4-[2-(1-piperdinyl)ethoxy]phenyl]methanone] | 20 |  | -1.7 | 32.4 | 46.9 | 1.8 | 4.5 | 8.4 | -18.6 | -0.9 | 51.4 | 
COc1ccc2c(C(=O)c3ccc(OCCN4CCCCC4)cc3)c(-c3ccsc3)sc2c1 [Example 8] |  | Not active at the concentration tested | 6.6 | 10.3 | 21.3 | 3.0 | 0.9 | 4.2 | -23.4 | -3.5 | 35 | 

From US5728724A, “Benzothiophene compounds” (Eli Lilly and Company, priority 1996, dated 1998)
